Assay results reported in PMC10323144, “Garbage in, garbage out: how reliable training data improved a virtual screening approach against SARS-CoV-2 MPro” (Frontiers in Pharmacology, 2023).

Target: SARS-CoV-2 MPro (Severe acute respiratory syndrome coronavirus 2, UniProt P0DTD1)
Assay: MPro activity assay (de-quenching of Edans fluorescence on cleavage of a Dabcyl/Edans peptide)
Assay type: biochemical
Conditions: in-house acquired data, internal screening under standardized conditions (128 compounds)

Compound	Class (MPro activity class)
COc1ccc(C(=O)C2=C(O)C(=O)N(c3nc4ccc(Cl)cc4s3)C2c2ccc(F)cc2)cc1OC (stereo not drawn) [ADKPN164]	0 (compounds with IC50 > 20 μM, percentage inhibition <80% at 20 µM or 50 μM, or percentage enzyme inhibition <50% at 10 µM were labelled as INACTIVE)
COc1ccc(C2C(C(=O)c3ccc4c(c3)OCCO4)=C(O)C(=O)N2c2nc3ccccc3s2)cc1 (stereo not drawn) [ADKPN165]	0 (compounds with IC50 > 20 μM, percentage inhibition <80% at 20 µM or 50 μM, or percentage enzyme inhibition <50% at 10 µM were labelled as INACTIVE)
O=C(C1=C(O)C(=O)N(c2nc3ccc(Cl)cc3s2)C1c1ccc(F)cc1)c1ccc2c(c1)OCCO2 (stereo not drawn) [ADRMC150]	0 (compounds with IC50 > 20 μM, percentage inhibition <80% at 20 µM or 50 μM, or percentage enzyme inhibition <50% at 10 µM were labelled as INACTIVE)
Cc1ccc2nc(N3C(=O)C(O)=C(C(=O)c4ccc5c(c4)OCCO5)C3c3ccccc3)sc2c1 (stereo not drawn) [ADRMC151]	0 (compounds with IC50 > 20 μM, percentage inhibition <80% at 20 µM or 50 μM, or percentage enzyme inhibition <50% at 10 µM were labelled as INACTIVE)
COc1cc(C2C(C(=O)c3ccc4c(c3)OCCO4)=C(O)C(=O)N2c2nc3ccc(C)cc3s2)ccc1O (stereo not drawn) [ADRMC152]	0 (compounds with IC50 > 20 μM, percentage inhibition <80% at 20 µM or 50 μM, or percentage enzyme inhibition <50% at 10 µM were labelled as INACTIVE)
COc1ccc(C2C(C(=O)c3ccc4c(c3)OCCO4)=C(O)C(=O)N2c2nc3ccc(C)cc3s2)cc1OC (stereo not drawn) [ADRMC153]	0 (compounds with IC50 > 20 μM, percentage inhibition <80% at 20 µM or 50 μM, or percentage enzyme inhibition <50% at 10 µM were labelled as INACTIVE)
Cc1ccc2nc(N3C(=O)C(O)=C(C(=O)c4ccc5c(c4)OCCO5)C3c3ccc(F)cc3)sc2c1 (stereo not drawn) [ADRMC154]	0 (compounds with IC50 > 20 μM, percentage inhibition <80% at 20 µM or 50 μM, or percentage enzyme inhibition <50% at 10 µM were labelled as INACTIVE)
COc1ccc2nc(N3C(=O)C(O)=C(C(=O)c4ccc5c(c4)OCCO5)C3c3ccc(OC)c(OC)c3)sc2c1 (stereo not drawn) [ADRMC155]	0 (compounds with IC50 > 20 μM, percentage inhibition <80% at 20 µM or 50 μM, or percentage enzyme inhibition <50% at 10 µM were labelled as INACTIVE)
COc1ccc2nc(N3C(=O)C(O)=C(C(=O)c4ccc5c(c4)OCCO5)C3c3ccc(O)c(OC)c3)sc2c1 (stereo not drawn) [ADRMC156]	0 (compounds with IC50 > 20 μM, percentage inhibition <80% at 20 µM or 50 μM, or percentage enzyme inhibition <50% at 10 µM were labelled as INACTIVE)
COc1ccc(C2C(C(=O)c3ccc4c(c3)OCCO4)=C(O)C(=O)N2c2nc3ccc(Cl)cc3s2)cc1OC (stereo not drawn) [ADRMC157]	0 (compounds with IC50 > 20 μM, percentage inhibition <80% at 20 µM or 50 μM, or percentage enzyme inhibition <50% at 10 µM were labelled as INACTIVE)
COc1cc(C2C(C(=O)c3ccc4c(c3)OCCO4)=C(O)C(=O)N2c2nc3ccc(Cl)cc3s2)ccc1O (stereo not drawn) [ADRMC158]	0 (compounds with IC50 > 20 μM, percentage inhibition <80% at 20 µM or 50 μM, or percentage enzyme inhibition <50% at 10 µM were labelled as INACTIVE)
O=C(C1=C(O)C(=O)N(c2nc3ccc(Cl)cc3s2)C1c1ccccc1)c1ccc2c(c1)OCCO2 (stereo not drawn) [ADRMC159]	0 (compounds with IC50 > 20 μM, percentage inhibition <80% at 20 µM or 50 μM, or percentage enzyme inhibition <50% at 10 µM were labelled as INACTIVE)
COC(=O)CN1C(=O)C(C2C(=O)OCC2c2ccccc2)C1C=Cc1ccccc1 (stereo not drawn) [CMD111]	0 (compounds with IC50 > 20 μM, percentage inhibition <80% at 20 µM or 50 μM, or percentage enzyme inhibition <50% at 10 µM were labelled as INACTIVE)
O=c1[nH]sc2ccccc12 [COV19001]	1 (Compounds with IC50 < 10 µM or with a percentage of enzyme inhibition >50% at 10 µM were labelled as ACTIVE)
Cc1cccc2c(=O)[nH]sc12 [COV19002]	0 (compounds with IC50 > 20 μM, percentage inhibition <80% at 20 µM or 50 μM, or percentage enzyme inhibition <50% at 10 µM were labelled as INACTIVE)
O=c1c2ccccc2sn1Cc1ccc(F)cc1 [COV19003]	1 (Compounds with IC50 < 10 µM or with a percentage of enzyme inhibition >50% at 10 µM were labelled as ACTIVE)
O=c1c2ccccc2sn1Cc1ccc(C(F)(F)F)cc1 [COV19004]	1 (Compounds with IC50 < 10 µM or with a percentage of enzyme inhibition >50% at 10 µM were labelled as ACTIVE)
Cc1cc(Cl)cc2sn(Cc3ccccc3)c(=O)c12 [COV19006]	1 (Compounds with IC50 < 10 µM or with a percentage of enzyme inhibition >50% at 10 µM were labelled as ACTIVE)
Cc1cccc2c(=O)n(Cc3ccccc3)sc12 [COV19007]	0 (compounds with IC50 > 20 μM, percentage inhibition <80% at 20 µM or 50 μM, or percentage enzyme inhibition <50% at 10 µM were labelled as INACTIVE)
COc1ccc(Cn2sc3ccccc3c2=O)cc1 [COV19009]	1 (Compounds with IC50 < 10 µM or with a percentage of enzyme inhibition >50% at 10 µM were labelled as ACTIVE)
O=c1c2ccccc2sn1-c1ccccc1 [COV19010]	1 (Compounds with IC50 < 10 µM or with a percentage of enzyme inhibition >50% at 10 µM were labelled as ACTIVE)
Cc1cccc(Cl)c1-n1sc2ccccc2c1=O [COV19011]	1 (Compounds with IC50 < 10 µM or with a percentage of enzyme inhibition >50% at 10 µM were labelled as ACTIVE)
O=c1c2ccccc2sn1-c1ccc(C(F)(F)F)cc1 [COV19012]	1 (Compounds with IC50 < 10 µM or with a percentage of enzyme inhibition >50% at 10 µM were labelled as ACTIVE)

Compound	Class (MPro activity class)
O=c1c2ccccc2sn1-c1ccc2ccccc2c1 [COV19013]	1 (Compounds with IC50 < 10 µM or with a percentage of enzyme inhibition >50% at 10 µM were labelled as ACTIVE)
O=c1c2ccccc2sn1-c1ccc([N+](=O)[O-])cc1 [COV19014]	1 (Compounds with IC50 < 10 µM or with a percentage of enzyme inhibition >50% at 10 µM were labelled as ACTIVE)
Cc1ccc(-n2sc3ccccc3c2=O)cc1 [COV19015]	1 (Compounds with IC50 < 10 µM or with a percentage of enzyme inhibition >50% at 10 µM were labelled as ACTIVE)
O=c1c2ccccc2sn1-c1ccc(Cl)cc1 [COV19016]	1 (Compounds with IC50 < 10 µM or with a percentage of enzyme inhibition >50% at 10 µM were labelled as ACTIVE)
Cc1cccc2c(=O)n(-c3ccccc3)sc12 [COV19017]	0 (compounds with IC50 > 20 μM, percentage inhibition <80% at 20 µM or 50 μM, or percentage enzyme inhibition <50% at 10 µM were labelled as INACTIVE)
Cc1ccc(-n2sc3cc(Cl)cc(C)c3c2=O)cc1 [COV19018]	1 (Compounds with IC50 < 10 µM or with a percentage of enzyme inhibition >50% at 10 µM were labelled as ACTIVE)
CCOC(=O)c1ncc(-n2sc3ccccc3c2=O)s1 [COV19019]	1 (Compounds with IC50 < 10 µM or with a percentage of enzyme inhibition >50% at 10 µM were labelled as ACTIVE)
O=C1NCCCCC1n1sc2ccccc2c1=O (stereo not drawn) [COV19020]	1 (Compounds with IC50 < 10 µM or with a percentage of enzyme inhibition >50% at 10 µM were labelled as ACTIVE)
O=c1c2ccccc2sn1-c1nc2cc(Sc3ccccc3)ccc2[nH]1 [COV19021]	1 (Compounds with IC50 < 10 µM or with a percentage of enzyme inhibition >50% at 10 µM were labelled as ACTIVE)
O=C(Cn1ccnc1NC(=O)c1ccccc1I)NCc1ccccc1 [COV19022]	0 (compounds with IC50 > 20 μM, percentage inhibition <80% at 20 µM or 50 μM, or percentage enzyme inhibition <50% at 10 µM were labelled as INACTIVE)
O=C(Cn1ccnc1-n1sc2ccccc2c1=O)NCc1ccccc1 [COV19023]	0 (compounds with IC50 > 20 μM, percentage inhibition <80% at 20 µM or 50 μM, or percentage enzyme inhibition <50% at 10 µM were labelled as INACTIVE)
COc1ccc(CNC(=O)c2ccccc2I)cc1 [COV19024]	0 (compounds with IC50 > 20 μM, percentage inhibition <80% at 20 µM or 50 μM, or percentage enzyme inhibition <50% at 10 µM were labelled as INACTIVE)
Cc1ccc(NC(=O)c2ccccc2I)cc1 [COV19025]	0 (compounds with IC50 > 20 μM, percentage inhibition <80% at 20 µM or 50 μM, or percentage enzyme inhibition <50% at 10 µM were labelled as INACTIVE)
O=C(Nc1ccccc1)c1ccccc1I [COV19026]	0 (compounds with IC50 > 20 μM, percentage inhibition <80% at 20 µM or 50 μM, or percentage enzyme inhibition <50% at 10 µM were labelled as INACTIVE)
O=C(Nc1ccc(Cl)cc1)c1ccccc1I [COV19027]	0 (compounds with IC50 > 20 μM, percentage inhibition <80% at 20 µM or 50 μM, or percentage enzyme inhibition <50% at 10 µM were labelled as INACTIVE)
Cc1cccc(Cl)c1NC(=O)c1ccccc1I [COV19028]	0 (compounds with IC50 > 20 μM, percentage inhibition <80% at 20 µM or 50 μM, or percentage enzyme inhibition <50% at 10 µM were labelled as INACTIVE)
O=C(Nc1nc2cc(Sc3ccccc3)ccc2[nH]1)c1ccccc1I [COV19029]	0 (compounds with IC50 > 20 μM, percentage inhibition <80% at 20 µM or 50 μM, or percentage enzyme inhibition <50% at 10 µM were labelled as INACTIVE)
O=C(Nc1ccc([N+](=O)[O-])cc1)c1ccccc1I [COV19030]	0 (compounds with IC50 > 20 μM, percentage inhibition <80% at 20 µM or 50 μM, or percentage enzyme inhibition <50% at 10 µM were labelled as INACTIVE)
COc1cccc(OC)c1NC(=O)c1ccccc1I [COV19031]	0 (compounds with IC50 > 20 μM, percentage inhibition <80% at 20 µM or 50 μM, or percentage enzyme inhibition <50% at 10 µM were labelled as INACTIVE)
O=C(NCc1ccc(C(F)(F)F)cc1)c1ccccc1I [COV19032]	0 (compounds with IC50 > 20 μM, percentage inhibition <80% at 20 µM or 50 μM, or percentage enzyme inhibition <50% at 10 µM were labelled as INACTIVE)
O=C(Nc1cccc2ccccc12)c1ccccc1I [COV19033]	0 (compounds with IC50 > 20 μM, percentage inhibition <80% at 20 µM or 50 μM, or percentage enzyme inhibition <50% at 10 µM were labelled as INACTIVE)
Cc1cccc(C(=O)Nc2ccccc2)c1I [COV19034]	0 (compounds with IC50 > 20 μM, percentage inhibition <80% at 20 µM or 50 μM, or percentage enzyme inhibition <50% at 10 µM were labelled as INACTIVE)
